# Results reported in patent US20090209644A1, “LIPOTOXICITY RELIEVING AGENT” (priority 2005, published 2009).
# Where two headings read alike, the source gives them in different places.
# Tests used:
# [1] = test system: Min6 cells; experiment: Restoration of impaired insulin secretion in Min6 cells after palmitic acid load (Experimental Example 2); type: cell-based, mouse; conditions: Min6, 0.4 mM palmitic acid load 48 h, 20 mM glucose; for insulin secretion, % of normal group: normal group = 100%
# Experimental: (1-1) Min6 cells suspended in DMEM medium (manufactured by Gibco) were seeded in a 24 well plate at 1.5×10^5 cells per well, and the cells were incubated overnight in 5% CO2 at 37° C. (1-2) To each well, palmitic acid was added to a concentration of 0.4 mM, and BSA not containing the fatty acid was added to a concentration of 0.5% (v/v), and the incubation was continued in 5% CO2 at 37° C. for 48 hours. (1-3) The cells were washed twice with PBS(−), and the incubation was continued in 5% CO2 at 37° C. for 48 hours in DMEM medium (manufactured by Sigma) after adding palmitic acid (palmitic acid group), oleic acid (oleic acid group), EPA (EPA group), or DHA (DHA group) at 50 μM, or in the absence of the fatty acid (control group). In the meanwhile, the Min6 cells cultured in the above (1-1) were incubated in the DMEM medium (manufactured by Sigma) for 48 hours as in the case of the above (1-2) but without adding the 0.4 mM palmitic acid (normal group), and these cells were washed twice with the PBS(−) and incubated in the DMEM medium (manufactured by Sigma) in the absence of the fatty acid in 5% CO2 at 37° C. for another 48 hours as in the case of the control group of the above (1-3) to prepare the sample (normal group). The stimulation with glucose was conducted by repeating the procedure of Experimental Example 1(2), and the sample that had been stimulated with 2.8 mM glucose and the sample that had been stimulated with 20 mM glucose were collected and the amount of insulin per mg of the protein were measured.
# [2] = test system: Langerhans' islet (pancreatic β-cell); experiment: Glucose-stimulated insulin secretion of Langerhans' islet isolated from fed mice (Experimental Example 3); type: in vivo, mice (C57BL/6J); conditions: 20 mM glucose; for insulin secretion, % of control group: control = 100%
# Description: Male mice (C57BL/6J, 8 week old, purchased from Clea Japan, Inc.) were fed on fish meal free F1 (manufactured by Funabashi Farms Co., Ltd.) for 1 week, and the mice were divided into 4 groups each including 9 to 10 mice. The 4 groups of mice were freely fed for 28 days on (1) fish meal free F1 (control group), (2) fish meal free F1 containing 20% by weight of tripalmitic acid added (palmitic acid group), (3) F1 feed not containing any fish meal having 20% by weight of tripalmitic acid and 5% by weight of EPA-E added (the group of palmitic acid plus EPA), and (4) F1 feed not containing any fish meal having 5% by weight of EPA-E added (EPA group). Before the start of the experiment, on 14th day, and on the final day, blood was taken from orbital venous plexus after fasting for 16 hours. The serum was separated, and blood free fatty acid was enzymatically measured by using NEFA Test Wako (Wako Pure Chemical Industries, Ltd.). Langerhans' islet was isolated by way of density gradient method from the pancreas that had been treated with collagenase, and cultivated in 10% (v/v) fetal bovine serum (purchased from Iwai Chemicals Company) and RPM 11640 medium) supplemented with 1% by weight of penicillin streptomycin (manufactured by Sigma) in 5% CO2 at 37° C. for 2 hours. The glucose-stimulated insulin secretion was then evaluated according to the procedure described in Experimental Example 1-(2). The Langerhans' islet was washed with PBS(−) and vigorously shaked in […] of TNE buffer (0.1M Tris-HCl, pH 7.4, 2M NaCl, 10 mM EDTA) to prepare the cell lysate. 20 μL of this cell lysate was added to 100 μL of chromogenic solution (1.2 μL of Hoechst 33258 (manufactured by Wako Pure Chemical Industries, Ltd.) added to 1 mL of TNE buffer), and the reaction was allowed to proceed at room temperature for at least 8 hours, and the measurement was conducted by using an excitation wavelength of 350 nm and a measurement wavelength of 450 nm. Similar evaluation was conducted by using bovine thymus DNA (manufactured by Sigma) to prepare a calibration curve to thereby enable determination of the DNA amount. Amount of insulin per μg of the DNA of the Langerhans' islet was measured.
# [3] = test system: Min6 cells from mouse pancreatic β-cell; experiment: Inhibition (prophylaxis) of lipotoxicity-impaired glucose-stimulated insulin secretion in Min6 cells (Experimental Example 1); type: cell-based; conditions: for insulin secretion (amount of insulin per mg of the protein): stimulated with 20 mM glucose
# Experimental: Min6 cells from mouse pancreatic β-cell (provided by Dr. Miyazaki of Osaka University) suspended in DMEM medium (manufactured by GIBCO, purchased from Iwai Chemicals Company) were seeded in a 24 well plate at 1.5×10^5 cells per well, and the cells were incubated in 5% CO2 at 37° C. for 24 hours. The medium was replaced with DMEM medium (manufactured by Sigma) containing 0.5% (v/v) fatty acid free bovine serum albumin (hereinafter abbreviated as BSA) and 5.5 mM glucose, and incubated in 5% CO2 at 37° C. for 48 hours with or without (control group) one of the following fatty acids, 0.4 mM palmitic acid (palmitic acid group), 50 μM EPA (EPA group), or 0.4 mM palmitic acid and 50 μM EPA (the group of palmitic acid plus EPA). The supernatant was removed from the cell culture of (1), and the cells were washed twice with phosphate buffered saline (hereinafter abbreviated as PBS(−)), and after adding 500 μL of Krebs-Ringer-Bicarbonate-Hepes buffer (hereinafter abbreviated as KRBH buffer) containing 0.5% (v/v) fatty acid free BSA and 2.8 mM glucose, the incubated was continued in 5% CO2 at 37° C. for 1 hour. The supernatant was removed from the cell culture, and after adding 500 μL of KRBH buffer containing 0.5% (v/v) BSA and 2.8 mM glucose, the incubation was continued in 5% CO2 at 37° C. for 1 hour, and the supernatant was collected as the sample which had been stimulated with 2.8 mM glucose. Next, the cells were washed twice with PBS(−), and incubated in KRBH buffer containing 0.5% (v/v) BSA and 20 mM glucose in 5% CO2 at 37° C. for 1 hour. The supernatant was collected as the sample which had been stimulated with 20 mM glucose. The samples collected were evaluated for their insulin concentration by Levis insulin assay kit (manufactured by Shibayagi and purchased from Nakayama Co., Ltd.) and for their protein concentration by the method of […] (BCA kit), and determine the amount of insulin per mg of the protein.
# [4] = test system: Langerhans' islet; experiment: Combined use of EPA and tolbutamide on palmitic acid-suppressed insulin secretion of isolated Langerhans' islet (Experimental Example 4); type: cell-based, mice (C57BL/6J); conditions: mouse islets; for insulin secretion, % of control group / activity at 400 µM / activity at 5000 µM: control = 100%; for activity at 400 µM / activity at 5000 µM: Mus musculus, read-out: insulin secretion, % of control group
# Experimental: Langerhans' islet was isolated from the pancreas of male mice (C57BL/6J, 8 week old, purchased from Clea Japan, Inc.) and cultured according to the procedure of Experimental Example 3, and effect of 50 μM EPA alone (the group of palmitic acid plus EPA), 5 mM tolbutamide alone (the group of palmitic acid plus tolbutamide), and combined use of 50M EPA and 5 mM tolbutamide (the group of palmitic acid plus the combination) on the suppression of the insulin secretion stimulated with 20 mM glucose and the insulin secretion stimulated with 30 mM KCl induced by 0.4 mM palmitic acid were measured according to the procedure of Experimental Example 1. Amount of insulin per 1 ng DNA of the Langerhans' islet was evaluated according to the procedure of Experimental Example 3.
# [5] = Blood (serum) free fatty acid in palmitic acid fed mice (Experimental Example 3); type: in vivo, mice (C57BL/6J); conditions: feed with 20% by weight tripalmitic acid, 28 days, vs control group
# Description: Male mice (C57BL/6J, 8 week old, purchased from Clea Japan, Inc.) were fed on fish meal free F1 (manufactured by Funabashi Farms Co., Ltd.) for 1 week, and the mice were divided into 4 groups each including 9 to 10 mice. The 4 groups of mice were freely fed for 28 days on (1) fish meal free F1 (control group), (2) fish meal free F1 containing 20% by weight of tripalmitic acid added (palmitic acid group), (3) F1 feed not containing any fish meal having 20% by weight of tripalmitic acid and 5% by weight of EPA-E added (the group of palmitic acid plus EPA), and (4) F1 feed not containing any fish meal having 5% by weight of EPA-E added (EPA group). Before the start of the experiment, on 14th day, and on the final day, blood was taken from orbital venous plexus after fasting for 16 hours. The serum was separated, and blood free fatty acid was enzymatically measured by using NEFA Test Wako (Wako Pure Chemical Industries, Ltd.). […] The glucose-stimulated insulin secretion was then evaluated according to the procedure described in Experimental Example 1-(2).
# [6] = islets of mice fed 5% EPA-E alone 28 days
# [7] = islets of mice fed 20% tripalmitic acid and 5% EPA-E 28 days
# [8] = 0.4 mM palmitic acid plus 50 μM EPA, 5 mM tolbutamide or both, 20 mM glucose
# [9] = 0.4 mM palmitic acid plus 50 μM EPA, 5 mM tolbutamide or both, 30 mM KCl
# [10] = 0.4 mM palmitic acid plus 50 μM EPA, 5 mM tolbutamide or both, stimulated with 20 mM glucose
# [11] = 0.4 mM palmitic acid plus 50 μM EPA, 5 mM tolbutamide or both, stimulated with 30 mM KCl
# [12] = then 48 h without fatty acid (control group)
# [13] = islets of mice fed 20% tripalmitic acid 28 days
structure (smiles),measurement,setting,value
"CC/C=C\C/C=C\C/C=C\C/C=C\C/C=C\C/C=C\CCC(=O)O [DHA, docosahexaenoic acid]",insulin secretion (amount of insulin per mg of the protein),[1]; then 50 μM fatty acid 48 h,0.004073 mg
same,"insulin secretion, % of normal group",[1]; then 50 μM fatty acid 48 h,81.4%
"CC/C=C\C/C=C\C/C=C\C/C=C\C/C=C\CCCC(=O)O [EPA, eicosapentaenoic acid]",insulin secretion (amount of insulin per mg of the protein),[1]; then 50 μM fatty acid 48 h,0.004278 mg
same,"insulin secretion, % of normal group",[1]; then 50 μM fatty acid 48 h,85.4%
same,insulin secretion (amount of insulin per μg of the DNA of the Langerhans' islet),[2]; [6],0.0089 µg
same,"insulin secretion, % of control group",[2]; [6],121%
same,insulin secretion (amount of insulin per μg of the DNA of the Langerhans' islet),[2]; [7],0.0082 µg
same,"insulin secretion, % of control group",[2]; [7],111%
same,insulin secretion (amount of insulin per mg of the protein),"[3]; Min6, 50 μM EPA alone 48 h",0.003664 mg
same,"insulin secretion, % of control group","[3]; Min6, 0.4 mM palmitic acid and 50 μM EPA 48 h, 20 mM glucose, control = 100%",54.6%
same,insulin secretion (amount of insulin per mg of the protein),"[3]; Min6, 0.4 mM palmitic acid and 50 μM EPA 48 h",0.002096 mg
same,activity at 50 µM,"[3]; Mus musculus, Min6, 50 μM EPA alone 48 h, 20 mM glucose, control = 100%, read-out: insulin secretion, % of control group",95.5%
same,"insulin secretion, % of control group",[4]; [8],80.0%
same,"insulin secretion, % of control group",[4]; [9],72.4%
same,insulin secretion (amount of insulin per 1 ng DNA of the Langerhans' islet),[4]; [10],823 pg
same,insulin secretion (amount of insulin per 1 ng DNA of the Langerhans' islet),[4]; [11],422 pg
CCCCCCCC/C=C\CCCCCCCC(=O)O [oleic acid],insulin secretion (amount of insulin per mg of the protein),[1]; then 50 μM fatty acid 48 h,0.000659 mg
same,"insulin secretion, % of normal group",[1]; then 50 μM fatty acid 48 h,13.2%
CCCCCCCCCCCCCCCC(=O)O [palmitic acid],serum free fatty acid concentration,[5],increased more significantly with time
same,insulin secretion (amount of insulin per mg of the protein),[1]; then 50 μM fatty acid 48 h,0.000742 mg
same,"insulin secretion, % of normal group",[1]; then 50 μM fatty acid 48 h,14.8%
same,insulin secretion (amount of insulin per mg of the protein),[1]; [12],0.002481 mg
same,"insulin secretion, % of normal group",[1]; [12],49.6%
same,insulin secretion (amount of insulin per μg of the DNA of the Langerhans' islet),[2]; [13],0.0046 µg
same,"insulin secretion, % of control group",[2]; [13],63%
same,insulin secretion (amount of insulin per mg of the protein),"[3]; Min6, 0.4 mM palmitic acid alone 48 h",0.00091 mg
same,activity at 400 µM,"[3]; Mus musculus, Min6, 0.4 mM palmitic acid alone 48 h, 20 mM glucose, control = 100%, read-out: insulin secretion, % of control group",23.7%
same,activity at 400 µM,"[4]; 0.4 mM palmitic acid alone, 20 mM glucose",55.6%
same,activity at 400 µM,"[4]; 0.4 mM palmitic acid alone, 30 mM KCl",39.3%
same,insulin secretion (amount of insulin per 1 ng DNA of the Langerhans' islet),"[4]; 0.4 mM palmitic acid alone, stimulated with 20 mM glucose",572 pg
same,insulin secretion (amount of insulin per 1 ng DNA of the Langerhans' islet),"[4]; 0.4 mM palmitic acid alone, stimulated with 30 mM KCl",229 pg
CCCCNC(=O)NS(=O)(=O)c1ccc(C)cc1 [tolbutamide],activity at 5000 µM,[4]; [8],65.4%
same,activity at 5000 µM,[4]; [9],54.2%
same,insulin secretion (amount of insulin per 1 ng DNA of the Langerhans' islet),[4]; [10],673 pg
same,insulin secretion (amount of insulin per 1 ng DNA of the Langerhans' islet),[4]; [11],316 pg
